Test results: ChEMBL document CHEMBL1201862, “PubChem BioAssay data set” (2004)
The source made the active and inactive calls.

Legend:
[1] = cytotoxicity in HEK293 background cells – cell-based, dry powder, set 2, counter-screen for EBV LMP1 inhibitor project, dose response (AID 624374); assay type: functional
[2] = inhibitors of EBV LMP1 NF-kappaB signaling – cell-based, luciferase reporter, luminescence, dry powder, set 2, dose response (AID 624376); assay type: functional
[3] = Late stage assay provider results from the probe development effort to identify selective inhibitors of heat shock protein 90 (HSP90): Absorbance-based cell proliferation assay in SKBR3 cells.; assay type: functional; conditions: SK-BR-3
[4] = Late stage assay provider results from the probe development effort to identify selective inhibitors of heat shock protein 90 (HSP90): Absorbance-based cell proliferation assay in MCF7 cells.; assay type: functional
H9c2 = assay: cells; assay type: functional, cell-based; conditions: Rattus norvegicus, H9c2, Myocardium;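 also: confirmatory concentration-response retest of ultra-high-throughput screening hits for modulation of myocardial damage; cell death induced by hydrogen peroxide oxidative stress; compound pretreatment for 60 min then peroxide exposure for 2 h; potency is for protecting the cells against peroxide damage rather than for killing them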
Albumin = Albumin (Bos taurus, UniProt P02769); assay: Counterscreen for inhibitors of T-cell receptor (TCR)-CD3 interaction: Fluorescence-based biochemical high throughput dose response assay to identify inhibitors of T-cell receptor (TCR)-CD3 interaction using a TAMRA-labeled BSA probe.; assay type: functional
Sequence of Albumin (P02769 whole entry, the tested form may be a part): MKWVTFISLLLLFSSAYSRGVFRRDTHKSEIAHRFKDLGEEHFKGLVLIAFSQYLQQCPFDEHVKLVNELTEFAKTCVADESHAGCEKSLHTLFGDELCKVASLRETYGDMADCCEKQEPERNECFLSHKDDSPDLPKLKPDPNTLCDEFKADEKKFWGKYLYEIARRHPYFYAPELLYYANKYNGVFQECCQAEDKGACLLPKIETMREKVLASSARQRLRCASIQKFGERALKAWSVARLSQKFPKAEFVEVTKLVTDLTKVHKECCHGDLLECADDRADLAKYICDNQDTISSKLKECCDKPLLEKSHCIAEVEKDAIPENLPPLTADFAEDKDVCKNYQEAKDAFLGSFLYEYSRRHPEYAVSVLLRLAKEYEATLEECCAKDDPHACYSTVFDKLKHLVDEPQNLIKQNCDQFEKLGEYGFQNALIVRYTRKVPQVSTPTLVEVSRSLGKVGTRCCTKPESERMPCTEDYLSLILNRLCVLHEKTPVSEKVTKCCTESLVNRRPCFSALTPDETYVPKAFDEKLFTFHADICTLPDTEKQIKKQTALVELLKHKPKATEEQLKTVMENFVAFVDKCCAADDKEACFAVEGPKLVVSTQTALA

[5] = biological target: Oxysterols receptor LXR-beta (Homo sapiens, UniProt P55055); assay type: functional, cell-based;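 also: agonist activity at LXR measured by a cell-based luminescence readout across a dose range, run as a counterscreen for daf-12 agonists; HEK293 cells with Gal4-LXR fusion and GAL4-driven luciferase reporter; potency for activation of Gal4-LXR reporter so compounds are agonists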
Sequence of Oxysterols receptor LXR-beta (P55055 whole entry, the tested form may be a part): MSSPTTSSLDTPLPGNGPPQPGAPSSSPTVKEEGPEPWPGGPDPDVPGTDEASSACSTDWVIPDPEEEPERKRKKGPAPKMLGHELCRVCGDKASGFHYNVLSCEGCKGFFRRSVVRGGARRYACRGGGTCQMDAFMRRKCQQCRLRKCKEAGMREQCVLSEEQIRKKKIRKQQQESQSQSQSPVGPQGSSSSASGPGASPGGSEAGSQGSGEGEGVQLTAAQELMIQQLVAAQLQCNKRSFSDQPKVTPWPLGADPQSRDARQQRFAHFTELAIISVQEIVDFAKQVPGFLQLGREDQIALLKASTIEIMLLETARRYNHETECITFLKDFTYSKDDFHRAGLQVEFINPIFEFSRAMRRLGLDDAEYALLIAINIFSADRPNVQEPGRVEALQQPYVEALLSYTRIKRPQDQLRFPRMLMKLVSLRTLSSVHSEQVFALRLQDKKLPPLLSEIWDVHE

[6] = A Cell-Based Confirmatory Screen for Compounds that Inhibit VEEV, TC-83 (8).; assay type: functional
[7] = disruptors of Keap1/Nrf2 protein interaction – biochemical, fluorescence polarization, dry powder, set 3, dose response (AID 651806)
[8] = biological target: Metabotropic glutamate receptor 3 (Rattus norvegicus, UniProt P31422); assay: inhibition of rat mGlu3 glutamate signaling – HEK/GIRK cells, thallium flux, dose response (AID 651839); assay type: functional
Sequence of Metabotropic glutamate receptor 3 (P31422 whole entry): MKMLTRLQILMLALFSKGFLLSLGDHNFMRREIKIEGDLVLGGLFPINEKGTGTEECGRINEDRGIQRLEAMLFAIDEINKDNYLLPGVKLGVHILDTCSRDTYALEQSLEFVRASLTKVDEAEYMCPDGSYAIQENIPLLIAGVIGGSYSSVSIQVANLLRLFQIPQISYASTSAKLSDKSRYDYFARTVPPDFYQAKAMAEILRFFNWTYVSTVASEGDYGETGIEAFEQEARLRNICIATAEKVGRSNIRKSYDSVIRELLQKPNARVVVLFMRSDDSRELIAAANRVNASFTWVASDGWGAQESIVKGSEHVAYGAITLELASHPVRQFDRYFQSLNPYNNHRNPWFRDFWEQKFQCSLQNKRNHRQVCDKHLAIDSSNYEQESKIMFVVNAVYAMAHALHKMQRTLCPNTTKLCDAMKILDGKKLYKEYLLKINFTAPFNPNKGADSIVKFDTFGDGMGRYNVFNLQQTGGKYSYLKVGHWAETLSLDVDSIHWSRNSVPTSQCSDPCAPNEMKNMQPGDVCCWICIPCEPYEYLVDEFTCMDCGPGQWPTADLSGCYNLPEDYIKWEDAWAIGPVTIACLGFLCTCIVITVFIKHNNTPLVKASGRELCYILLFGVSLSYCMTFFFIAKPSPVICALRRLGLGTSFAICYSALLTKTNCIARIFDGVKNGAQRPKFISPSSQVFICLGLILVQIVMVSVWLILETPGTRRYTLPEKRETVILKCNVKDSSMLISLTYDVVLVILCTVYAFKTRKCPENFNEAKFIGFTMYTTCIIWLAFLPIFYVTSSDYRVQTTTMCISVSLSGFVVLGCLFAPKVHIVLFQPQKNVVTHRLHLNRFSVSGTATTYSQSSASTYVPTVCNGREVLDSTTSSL

HeLa = assay: viability loss in HeLa cells – cell-based, 24 h, cherry-picked samples, cytotoxicity control, dose response (AID 504726); assay type: functional; conditions: Homo sapiens;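 also: potency for cytotoxicity as loss of luminescence signal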
ORF 73 = biological target: T1, ORF 73 (Human herpesvirus 8, UniProt O40947); assay: KSHV LANA DNA-binding disruption – biochemical, fluorescence polarization, cherry-picked samples, dose response (AID 504725); design: species or system Human gammaherpesvirus 8;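 also: fluorescence polarization of a labeled DNA duplex reporting LANA DNA binding; potency is for inhibitors that block LANA binding to the DNA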
T1 sequence (O40947 whole entry): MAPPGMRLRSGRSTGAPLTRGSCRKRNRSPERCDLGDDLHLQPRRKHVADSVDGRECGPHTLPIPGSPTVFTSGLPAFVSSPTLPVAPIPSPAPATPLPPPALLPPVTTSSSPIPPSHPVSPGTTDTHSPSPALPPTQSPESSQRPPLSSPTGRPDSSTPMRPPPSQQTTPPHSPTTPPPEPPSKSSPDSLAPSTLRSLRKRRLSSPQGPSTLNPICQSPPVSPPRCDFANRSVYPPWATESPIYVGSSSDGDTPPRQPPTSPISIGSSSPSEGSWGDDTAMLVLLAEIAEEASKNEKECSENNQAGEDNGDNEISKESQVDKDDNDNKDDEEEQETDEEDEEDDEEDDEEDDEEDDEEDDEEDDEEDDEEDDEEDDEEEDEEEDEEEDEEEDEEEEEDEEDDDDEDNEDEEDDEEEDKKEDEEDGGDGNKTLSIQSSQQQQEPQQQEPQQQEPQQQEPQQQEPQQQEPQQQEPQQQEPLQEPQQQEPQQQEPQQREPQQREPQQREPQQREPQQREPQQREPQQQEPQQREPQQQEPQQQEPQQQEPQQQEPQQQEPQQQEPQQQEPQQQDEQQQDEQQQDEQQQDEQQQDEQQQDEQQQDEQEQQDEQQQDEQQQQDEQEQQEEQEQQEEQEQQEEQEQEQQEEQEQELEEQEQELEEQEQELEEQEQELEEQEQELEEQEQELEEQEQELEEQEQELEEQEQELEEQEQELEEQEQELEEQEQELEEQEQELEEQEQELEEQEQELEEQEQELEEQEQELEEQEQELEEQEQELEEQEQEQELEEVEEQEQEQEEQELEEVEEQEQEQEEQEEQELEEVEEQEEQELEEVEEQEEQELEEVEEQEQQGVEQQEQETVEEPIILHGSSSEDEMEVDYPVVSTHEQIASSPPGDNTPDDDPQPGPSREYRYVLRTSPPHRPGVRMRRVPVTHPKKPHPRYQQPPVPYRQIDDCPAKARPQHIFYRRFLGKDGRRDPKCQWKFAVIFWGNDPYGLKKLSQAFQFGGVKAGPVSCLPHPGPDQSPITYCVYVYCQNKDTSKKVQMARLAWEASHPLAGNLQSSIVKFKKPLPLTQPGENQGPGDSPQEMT

Insulin-degrading enzyme [9] = biological target: T2, Insulin-degrading enzyme (Homo sapiens, UniProt P14735); assay: recombinant IDE activation, cell-free – biochemical, fluorescence polarization, counter-screen for IDE activator project, dose response (AID 588681)
T2 sequence (P14735 whole entry): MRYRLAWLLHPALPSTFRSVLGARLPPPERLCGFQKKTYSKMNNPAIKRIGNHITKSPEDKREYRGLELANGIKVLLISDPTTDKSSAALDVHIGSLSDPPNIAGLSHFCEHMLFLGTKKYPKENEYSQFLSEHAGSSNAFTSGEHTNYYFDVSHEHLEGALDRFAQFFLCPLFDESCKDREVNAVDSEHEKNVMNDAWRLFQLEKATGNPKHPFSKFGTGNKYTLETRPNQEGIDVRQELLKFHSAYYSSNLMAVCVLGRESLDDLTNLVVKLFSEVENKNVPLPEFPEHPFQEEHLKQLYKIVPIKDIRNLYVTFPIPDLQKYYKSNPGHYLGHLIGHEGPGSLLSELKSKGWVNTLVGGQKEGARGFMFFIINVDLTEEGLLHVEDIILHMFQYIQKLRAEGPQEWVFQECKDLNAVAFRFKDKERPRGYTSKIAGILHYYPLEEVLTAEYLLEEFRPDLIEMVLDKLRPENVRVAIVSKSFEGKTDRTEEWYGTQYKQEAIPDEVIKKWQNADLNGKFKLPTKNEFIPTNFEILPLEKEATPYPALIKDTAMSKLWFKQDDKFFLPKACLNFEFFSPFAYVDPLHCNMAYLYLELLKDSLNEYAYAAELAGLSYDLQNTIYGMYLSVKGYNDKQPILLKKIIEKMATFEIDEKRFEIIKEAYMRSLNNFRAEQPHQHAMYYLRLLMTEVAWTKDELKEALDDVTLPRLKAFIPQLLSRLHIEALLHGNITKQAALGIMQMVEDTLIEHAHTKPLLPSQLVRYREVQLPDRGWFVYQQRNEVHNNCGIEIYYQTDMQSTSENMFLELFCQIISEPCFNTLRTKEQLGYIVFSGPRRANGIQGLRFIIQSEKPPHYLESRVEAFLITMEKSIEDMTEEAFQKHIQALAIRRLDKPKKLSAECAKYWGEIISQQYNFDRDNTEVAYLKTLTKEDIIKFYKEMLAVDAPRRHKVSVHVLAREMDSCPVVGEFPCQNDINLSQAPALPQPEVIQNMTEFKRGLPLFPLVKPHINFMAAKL

Insulin-degrading enzyme [10] = biological target: T2, Insulin-degrading enzyme; assay: cellular IDE activation of Abeta substrate cleavage – fluorescence polarization, HEK cells, dose response (AID 588439); assay type: functional, cell-based
HEK293 [11] = assay: membrane integrity loss in HEK cells – cell-based, fluorescence, cytotoxicity control for IDE activator project, dose response (AID 588440); assay type: functional; conditions: Homo sapiens;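 also: cytotoxicity by LDH release measuring loss of membrane integrity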
HEK293 [12] = assay: optical interference in Abeta FP readout, dose response, artefact control for IDE activator project, biochemical, fluorescence polarization (AID 588442); assay type: functional, cell-based; conditions: Homo sapiens
Protein S100-A4 = Protein S100-A4 (Homo sapiens, UniProt P26447); assay: human S100A4 peptide interaction inhibition curves – biochemical, fluorescence polarization, cherry-picked hits, dose response (AID 687001); assay type: functional
Sequence of Protein S100-A4 (P26447 whole entry): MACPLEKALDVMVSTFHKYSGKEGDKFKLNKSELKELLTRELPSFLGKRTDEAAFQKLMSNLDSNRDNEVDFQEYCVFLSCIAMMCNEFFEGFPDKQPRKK

[13] = biological target: T3, Replicative DNA helicase DnaB (Mycobacterium tuberculosis, UniProt P9WMR3); assay: DnaB intein splicing inhibitors, dose response, biochemical, cell-free fluorescence (AID 449749); assay type: functional
T3 sequence (P9WMR3 whole entry): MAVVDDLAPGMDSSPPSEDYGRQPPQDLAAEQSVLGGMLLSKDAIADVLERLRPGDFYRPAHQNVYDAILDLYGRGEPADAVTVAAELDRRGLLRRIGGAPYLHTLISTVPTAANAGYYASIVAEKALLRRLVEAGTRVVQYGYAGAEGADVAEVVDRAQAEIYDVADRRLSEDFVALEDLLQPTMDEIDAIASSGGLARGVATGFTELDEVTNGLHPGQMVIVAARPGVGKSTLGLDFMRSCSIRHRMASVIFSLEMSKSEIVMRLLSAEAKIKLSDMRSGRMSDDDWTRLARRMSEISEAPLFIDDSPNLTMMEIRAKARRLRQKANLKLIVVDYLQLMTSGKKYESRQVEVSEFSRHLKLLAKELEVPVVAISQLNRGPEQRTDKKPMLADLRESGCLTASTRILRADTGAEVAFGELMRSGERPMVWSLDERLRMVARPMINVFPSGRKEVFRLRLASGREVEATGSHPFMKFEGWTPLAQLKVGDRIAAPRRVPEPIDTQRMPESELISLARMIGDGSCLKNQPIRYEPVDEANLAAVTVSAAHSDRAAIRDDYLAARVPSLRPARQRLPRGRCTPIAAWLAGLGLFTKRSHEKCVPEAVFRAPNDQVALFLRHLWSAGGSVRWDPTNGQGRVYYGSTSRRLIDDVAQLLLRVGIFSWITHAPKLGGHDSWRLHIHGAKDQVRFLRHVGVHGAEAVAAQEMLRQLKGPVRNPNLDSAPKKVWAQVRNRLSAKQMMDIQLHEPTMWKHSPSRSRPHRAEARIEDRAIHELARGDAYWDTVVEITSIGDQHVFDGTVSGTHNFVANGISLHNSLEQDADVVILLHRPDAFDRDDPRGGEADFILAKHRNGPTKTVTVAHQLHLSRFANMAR

Protein RecA = biological target: T4, Protein RecA (Mycobacterium tuberculosis, UniProt P9WHJ3); assay: Fluorescence Cell-Free Homogeneous Dose Retest to Identify Inhibitors of RecA-Intein Splicing Activity. [Related pubchem assays (depositor defined):AID2097, AID2223, AID489010, AID492950]; assay type: functional
T4 sequence (P9WHJ3 whole entry): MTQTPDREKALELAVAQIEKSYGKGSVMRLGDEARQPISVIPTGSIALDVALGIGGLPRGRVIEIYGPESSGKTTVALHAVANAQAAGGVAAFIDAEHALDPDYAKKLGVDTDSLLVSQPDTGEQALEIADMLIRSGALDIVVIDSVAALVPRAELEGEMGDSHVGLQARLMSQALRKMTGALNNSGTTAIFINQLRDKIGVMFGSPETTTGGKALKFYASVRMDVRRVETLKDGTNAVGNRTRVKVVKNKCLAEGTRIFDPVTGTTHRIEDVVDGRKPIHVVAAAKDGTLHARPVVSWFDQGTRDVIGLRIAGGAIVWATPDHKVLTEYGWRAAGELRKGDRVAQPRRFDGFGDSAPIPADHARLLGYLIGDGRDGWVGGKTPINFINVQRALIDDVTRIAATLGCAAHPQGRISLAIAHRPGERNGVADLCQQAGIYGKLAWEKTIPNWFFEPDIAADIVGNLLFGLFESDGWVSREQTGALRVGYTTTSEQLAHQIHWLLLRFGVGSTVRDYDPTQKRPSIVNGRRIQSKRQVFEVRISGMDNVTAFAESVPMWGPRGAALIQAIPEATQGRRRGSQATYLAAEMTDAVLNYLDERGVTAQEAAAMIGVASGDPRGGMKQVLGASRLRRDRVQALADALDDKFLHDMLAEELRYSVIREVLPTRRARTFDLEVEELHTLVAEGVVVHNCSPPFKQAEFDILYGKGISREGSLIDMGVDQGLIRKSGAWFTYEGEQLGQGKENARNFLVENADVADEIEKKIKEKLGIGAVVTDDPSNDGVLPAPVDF

[14] = biological target: Tyrosyl-DNA phosphodiesterase 2 (Homo sapiens, UniProt O95551); assay: potency against TDP2 phosphodiesterase activity – biochemical, epi absorbance, IC50, dose response (AID 743297)
Sequence of Tyrosyl-DNA phosphodiesterase 2 (O95551 whole entry): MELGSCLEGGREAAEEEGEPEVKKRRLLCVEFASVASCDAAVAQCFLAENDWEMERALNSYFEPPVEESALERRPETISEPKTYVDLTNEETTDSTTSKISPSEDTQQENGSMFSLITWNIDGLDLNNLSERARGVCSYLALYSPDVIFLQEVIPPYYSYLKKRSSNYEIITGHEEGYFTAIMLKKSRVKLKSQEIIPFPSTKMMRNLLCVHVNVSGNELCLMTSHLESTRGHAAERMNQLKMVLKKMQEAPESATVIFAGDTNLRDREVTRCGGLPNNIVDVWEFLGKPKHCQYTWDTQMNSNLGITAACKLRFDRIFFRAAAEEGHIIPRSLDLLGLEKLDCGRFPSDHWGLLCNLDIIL

Q: Which results are given for `CCC(=O)N1Cc2cc(C(=O)Nc3nccs3)nc(-c3cccc(-c4ccccc4OC)c3)c2[C@H]1CCO`?
A: AbsAC35 [1]: 247.5 µM; AbsAC35 [2]: 49.1 µM

Q: Which results are given for `COc1ccccc1NC(=O)c1cc(=O)c(OC)c[nH]1`?
A: IC50 [3]: > 100 µM (inactive); IC50 [4]: > 100 µM (inactive)

Q: What does the source list for `COC(=O)Cn1/c(=N/C(=O)c2cc(-c3cccs3)nc3ccccc23)sc2cc(S(N)(=O)=O)ccc21`?
A: IC50 (H9c2): 28.2 µM (active); IC50 (Albumin): > 94.1 µM (inactive)

Q: For `O=C(O)c1cc(-c2cccs2)[nH]n1`, which EC50 [5] is on record?
A: The EC50 was > 67.6 µM (inactive).

Q: With `CN1CCN(C)/C(=N/c2ccc(F)cc2C(=O)Nc2ccccc2)C1` as the compound, how does the IC50 [6] read?
A: Its IC50 is 6.39 µM (active).

Q: Which AC50 [7] does the source give for `O=C(O)Cc1ccccc1C(=O)N1CCc2ccccc2[C@H]1CN1C(=O)c2ccccc2C1=O` here?
A: The AC50 was 61.4 µM (active).

Q: Which IC50 [8] does the source give for `COc1ccc(C#Cc2ccc(C(=O)N3CCC(OC)C3)cc2)cc1` (stereo not given) here?
A: The IC50 was 10.7 µM (active).

Q: Which AC50 (HeLa) does the source give for `COc1ccc2c3c(cccc13)C(=O)CC2` here?
A: The AC50 was 31.7 µM (active).

Q: And the AC50 (ORF 73)?
A: The AC50 was 6.76 µM (active).

Q: What about the EC50 (Insulin-degrading enzyme [9]) of the same compound?
A: Its EC50 is > 54.7 µM (inactive).

Q: And the EC50 (Insulin-degrading enzyme [10])?
A: The EC50 was > 54.7 µM (inactive).

Q: And the IC50 (HEK293 [11])?
A: Its IC50 is > 89.2 µM (inactive).

Q: And the EC50 (HEK293 [12])?
A: The EC50 was > 18.6 µM (inactive).

Q: And the AC50 (Protein S100-A4)?
A: Its AC50 is 7.21 µM (active).

Q: With `Cc1cc(=O)n(C2CCS(=O)(=O)C2)[nH]1` (stereo not given) as the compound, how does the AC50 [13] read?
A: The AC50 was 3.43 µM (active).

Q: And the EC50 (Protein RecA)?
A: Its EC50 is 1.91 µM (active).

Q: And the IC50 [14]?
A: Its IC50 is > 128 µM (inactive).
